Read-outs that look alike come from different tables or passages of the source.
Columns and labels:
[1] = metabolite profiling of plasma, urine, feces after intravenous dose; conditions: rats 10 mg/kg intravenous
Procedure: Samples were profiled using high performance liquid chromatography with radiodetection and metabolic characterization was performed using mass spectrometry and tandem mass spectrometry analysis.

[2] = Phase 1b 4-week oral dosing study in NASH patients: pharmacokinetics; assay type: in vivo, human; conditions: for AUC(0-t) / Cmax / half-life / Tmax: both sexes, human, plasma, oral; for AUC(0-t): read-out: AUC(0-T), mean (standard deviation); for Cmax: read-out: Cmax, mean (standard deviation); for half-life: read-out: T1/2, mean (standard deviation) (converted); for Tmax: read-out: Tmax, mean (standard deviation)
Text: A total of 63 patients completed the study with 21 patients per dose group (completion of MRI-PDFF measurement). […] Subjects provided written informed consent to participate in the study • 2. Males or females subjects 18 years or older, at the time of signing informed consent • 3. BMI 20-45 kg/m^2 • 4. […] Value of Fibroscan®≥7 kPa • OR • b. MRE≥2.75 kPa • Clinical diagnosis of NASH was defined in this clinical trial as the existence of one or more of the following risk factors for NASH, namely: • a. Type 2 diabetes or elevated fasting blood sugar • b. Abdominal obesity • c. Elevated lipid levels, especially elevated levels of serum triglycerides • d. Hypertension, or • e. Low levels of HDL cholesterol • 5. For serum transaminases, ALT concentration for all patients at the time of screening was >1 and <5 times upper limit of normal (ULN) of the central lab in the absence of another cause of liver disease. If a patient had lab records in the past 6 months, ALT concentrations were <20 U/L female and <30 U/L male. AST concentration for all patients at the time of screening was <5× ULN • 6. […] Platelet counts≥120,000/mm^3 • 8. Female subjects were eligible for the study if they met the following criteria: • Are not pregnant or nursing • Women of child-bearing potential (defined as females who are not surgically sterile or who are not over the age of 52 and amenorrheic for at least 12 months) must utilize appropriate birth control throughout the study duration. Acceptable methods that may be used are abstinence, birth control pills (“The Pill”) or patch, diaphragm, IUD (coil), vaginal ring, condom, surgical sterilization or progestin implant or injection, or sexual activity limited to a sterile (e.g., vasectomized) male partner • 9. Male participants agreed to consistently and correctly use a condom in combination with one of the above methods of birth control from enrolment to 30 days after the last dose of study medication • 10. Participants were able to comply with dosing and able to complete the study schedule of assessments

Huh-7 cells = assay: real-time RT-PCR gene expression; assay type: cell-based, human; conditions: HG 72 h; 25HC3S 6.25-50 μM, 1-8 hours
Procedure: FIGS. 3A-3D. Expression of key genes related to signaling pathways. […] Key Genes and their targeting genes expression were determined by RT-PCR analysis. […] Each sample, 2 μg, was sent to […], Inc. (Hopkinton, MA) for analysis of global methylation bisulfite sequencing. The same samples, 6 μg, were sent to Novogene Co., Ltd (Tianjin, China) for analysis of whole genome bisulfite sequencing (WGBS). Total RNA was isolated using the Promega SV total RNA isolation system (Madison, WI) with DNase treatment. […] Real-time RT-PCR was performed using SYBR Green as the indicator on ABI 7500 Fast Real-Time PCR System (Applied Biosystems, Foster City, CA). Amplifications of β-actin or GAPDH were used as internal controls. Relative messenger RNA (mRNA) expression was quantified with the comparative cycle threshold (Ct) method using the primer set shown in Table 1.1 and was expressed as 2^-ΔΔCt.

[3] = single oral dose pharmacokinetic study in healthy and NASH subjects; assay type: in vivo, human; conditions: for Cmax: po, read-out: Cmax, Mean
Procedure: The present Example was a randomized, dose ranging, single dose safety and pharmacokinetic study of 25HC3S administered to subjects with NASH and control healthy subjects. […] For each cohort, 10 subjects with NASH were enrolled which were further classified into cirrhotic and non-cirrhotic. Each subject received only one dose of study treatment. The second cohort was dosed after a review of safety and tolerability data from Cohort 1.

## C[C@H](CCCC(C)(C)O)[C@H]1CC[C@H]2[C@@H]3CC=C4C[C@@H](OS(=O)(=O)O)CC[C@]4(C)[C@H]3CC[C@]12C [25HC3S, 25-hydroxycholesterol-3-sulfate]
[1]; pools 0 to 48 hours
  % of dose in feces: 2%
[1]; up to 1 hour post-dose
  share of the exposure (AUC) to 25HC3S related radioactivity in plasma: approximately 54%
[2]; 50 mg QD (n = 22)
  CL/F, mean (standard deviation): 150.6 (51.5) L/h
  AUC(0-t): 340 ng·h/mL
  Cmax: 79.1 ng/mL
  half-life: 162 min
  Tmax: 2.4 h
[2]; 150 mg QD (n = 21)
  CL/F, mean (standard deviation): 176.6 (80.5) L/h
  AUC(0-t): 1040 ng·h/mL
  Cmax: 274 ng/mL
  half-life: 162 min
  Tmax: 2 h
[2]; 300 mg BID (n = 21)
  CL/F, mean (standard deviation): 166.2 (60.4) L/h
  AUC(0-t): 2140 ng·h/mL
  Cmax: 430 ng/mL
  half-life: 144 min
  Tmax: 2.3 h
Huh-7 cells
  CREB5 expression, increase: up to 20 fold
  DUSP8 expression, increase: 5 fold
  FAS expression, decrease: ~90%
  HMGR expression, decrease: ~90%
  PGC1A expression, increase: 12 fold
[3]; 200 mg single oral dose, Healthy
  CL/F, Mean: 171.25 ± 28.60 L/h
[3]; Cohort 1 (50 mg) healthy subjects
  Plasma 25HC3S levels detectable up to, post-dose: up to 12 hours
[3]; Cohort 2
  AUC0-inf higher in NASH subjects: approximately 20%
  Geometric mean AUC0-12 and AUC0-last higher in NASH than healthy subjects: approximately 30%
[3]; Cohort 2 (200 mg) healthy subjects
  Plasma 25HC3S levels detectable up to, post-dose: up to 16 hours
[3]; Cohorts 1 and 2
  geometric mean Cmax increase, NASH over healthy subjects: 18-24%
[3]; NASH vs healthy
  exposure (AUC parameters), increasing trends in NASH subjects: up to 31%
[3]; human, plasma, oral, 200 mg, across both healthy and NASH subject groups, 50 and 200 mg, read-out: T1/2, range of mean values
  half-life: 100 to 151 min
[3]; human, plasma, 50 mg, 50 mg single oral dose, Healthy
  Cmax: 94 ± 27.3 ng/mL
[3]; human, plasma, 200 mg, 200 mg single oral dose, Healthy
  Cmax: 260 ± 54.8 ng/mL
